Laboratory results published in article PMC7463913, “The Interaction of Fluorinated Glycomimetics with DC-SIGN: Multiple Binding Modes Disentangled by the Combination of NMR Methods and MD Simulations” (Pharmaceuticals, 2020).

Molecular target: T1, DC-SIGN (ECD) (Homo sapiens, UniProt Q9NNX6)
T1 construct: DC-SIGN full extracellular domain (ECD, residues 70-404, Thermo Fischer Scientific); made in house
T1 sequence (Q9NNX6 70-404): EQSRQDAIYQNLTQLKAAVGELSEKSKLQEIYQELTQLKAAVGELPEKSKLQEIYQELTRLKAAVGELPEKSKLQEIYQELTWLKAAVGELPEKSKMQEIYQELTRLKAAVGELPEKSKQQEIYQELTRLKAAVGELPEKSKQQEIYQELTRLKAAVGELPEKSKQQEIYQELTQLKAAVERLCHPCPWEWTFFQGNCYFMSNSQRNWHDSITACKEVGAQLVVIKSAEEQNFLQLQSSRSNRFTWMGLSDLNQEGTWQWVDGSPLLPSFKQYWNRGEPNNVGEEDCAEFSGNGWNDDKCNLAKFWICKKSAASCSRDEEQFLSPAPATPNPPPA
Assay: competitive 19F-R2 filtered NMR experiments (spy molecule 6-F-ManαOMe)
Format: binding
Settings: for weaker ligand relative to best binders (1b, 1c, 1d): fold loss of affinity from KI values; for Ki: non-linear least squares fitting, [6-F-ManαOMe] 400 µM, [DC-SIGN (CRDs)] 10 µM, 298 K, pH 8.0; for loss in affinity versus the trisaccharide 1: fluorinated disaccharides versus 1
Text: In order to gain insights into the effects that the different fluorination patterns may have in the binding event, the affinities of 1b, the natural analogue of 1, as well as 1c and 1d, two partially fluorinated trisaccharides, were also estimated. (Table 2, Figure S1).
For KD estimation of 6-deoxy-6-F-Man (the spy-molecule), the free evolution delay was set to an optimized value τ=1 ms , after using relaxation dispersion experiments to assure a negligible chemical exchange contribution to R2,obs (Figure S1a). The KI of 1, 1b-d, 2, and 3 with DC-SIGN (ECD) was determined by titration experiments in a competitive fashion. Increasing amounts of the competitor molecules (compounds 1, 1b-d, 2, and 3) were added to a solution mixture of the spy molecule and the protein in each case, calculating the R2,obs of the spy molecule at each competitor concentration while the ratio [Spy-molecule]/[Protein] is fixed (40:1) (Figure S1c).
19F-R2 filtered experiments
The KD of compounds 1, 1b-d, 2 and 3 was estimated applying a 19F-R2 filtered approach. 6-F-ManαOMe, which weakly binds to DC-SIGN, was selected as the spy molecule. Relaxation rates R2 were determined employing a CPMG pulse sequence, by fitting the observed 19F signal intensity to the exponential decay curve:
ܫ(ݐ) = ܫ଴݁ି௧ோమ = ܫ଴݁ି௡ଶఛோమ (1) where ܫ(ݐ) refers to intensity at time ݐ, ܫ଴ is intensity at ݐ = 0, and ܴଶ is the transversal relaxation rate (ܴଶ = 1/ܶଶ).
In the limit of fast-exchange where the exchange contribution to the observed transversal relaxation rate ܴଶ,௢௕௦ is insignificant (Figure S1, a)), the following equations apply:
ܴଶ,௢௕௦ = ܴଶ,௙ + ൫ܴଶ,௕ − ܴଶ,௙൯݌௕ (2)
[ܲ]் + [ܮ]் + ܭ஽ − ඥ([ܲ]் + [ܮ]் + ܭ஽)ଶ − 4[ܲ]்[ܮ]் (3) where [ܲ]் and [ܮ]் are the total protein and ligand concentrarion respectively, [ܴ]ଶ,௙ and [ܴ]ଶ,௕ are the relaxation rates in the free and bound states, ݌௕ is the fraction of bound ligand and ܭ஽ the dissociation constant of the protein-ligand complex. [ܴ]ଶ,௙ of 6-F-ManαOMe was measured in absence of the lectin, and Equation 2 was used to estimate ܭ஽and [ܴ]ଶ,௕ for the […]
Then, ܭூ of compounds 1, 1b-d, 2 and 3 was measured in a competitive manner. ܴଶ,௢௕௦ of 6-F-ManαOMe (spy molecule) in solution with DC-SIGN ECD was monitored at 5 different competitor concentrations ([ܫ]) in each case with a fixed [ܲ]்/[ܮ]் ratio (Figure S1, c)), to derive ܭூ by fitting to Equation 2 with ݌௕ as defined in Equations (4) and (5) (Table 2):
݌௕ = 3ܭ + 2 cos൫ߠൗ ൯ √ܽଶ − 3ܾ − ܽ (4)
ߠ = cos ൬ ଶඥ(௔మିଷ௕)య ൰, ܽ = ܭ஽ + ܭூ + [ܮ]் + [ܫ]் − [ܲ]், ܾ = ([ܫ]் − [ܲ]்)ܭ஽ + ([ܮ]் − [ܲ]்)ܭ஽ + ܭூܭ஽, ܿ = −ܭூܭ஽[ܲ]்
Figure S1. 19F-R2 filtered experiments. a) Relaxation dispersion experiment for 6-F-ManαOMe (the spy molecule). R2,obs of the 19F nucleus is measured for different values of ωCPMG. Ligand and protein sample concentrations were: [6-F-ManαOMe] = 400 µM, [DC-SIGN (CRDs)] = 10 µM (counting concentration of CRDs, i.e, 4 CRDs per DC-SIGN ECD tetramer). For ωCPMG > 1000 s-1, there is virtually negligible exchange contribution to R2. Therefore, all the subsequent R2 filtered experiments were carried out with τCPMG = 1/ωCPMG = 1 ms. b) KD determination of 6-F-ManαOMe with DC-SIGN. R2,obs was measured for increasing amounts of [6-F-ManαOMe]/[DC-SIGN (CRDs)] (blue dots). KD and R2,b were obtained from fitting to Equation 2, which is valid in the fast-exchange regime (Rex = 0) [39a]. The predicted values at each [6-F-ManαOMe]/[DC-SIGN (CRDs)] are shown as red stars for comparison c) Titration curves showing the variation in 19F-R2,obs of the spy molecule 6-F-ManαOMe, when increasing amounts of the competitors (I) 1, 1b-d, 2 and 3 are added to a mixture [6-F-ManαOMe] = 400 µM, [DC-SIGN (CRDs)] = 10 µM. […]

| Structure (SMILES) | binding free energy difference (corresponding to the variation in affinity of 1 versus 1b) | weaker ligand relative to best binders (1b, 1c, 1d) | Ki [mM] | variation in binding affinity (trifluorinated 1 versus 1b) [fold] | loss in affinity versus the trisaccharide 1 |
| --- | --- | --- | --- | --- | --- |
| CO[C@H]1O[C@H](CO[C@H]2O[C@H](CO)[C@@H](O)[C@H](O)[C@@H]2F)[C@@H](O)[C@H](O[C@H]2O[C@H](CO)[C@@H](O)[C@H](O)[C@@H]2F)[C@@H]1F [compound 1] | ca. 1 kcal/mol | two-fold weaker | 2.5 | 2.5 | – |
| CO[C@H]1O[C@H](CO)[C@@H](O)[C@H](O[C@H]2O[C@H](CO)[C@@H](O)[C@H](O)[C@@H]2F)[C@@H]1F [compound 2] | – | nine- | 9.6 | – | ca. four-fold |
| CO[C@H]1O[C@H](CO[C@H]2O[C@H](CO)[C@@H](O)[C@H](O)[C@@H]2F)[C@@H](O)[C@H](O)[C@@H]1F [compound 3] | – | four-fold weaker | 4 | – | ca. two-fold |
